ChEMBL document CHEMBL5291721, “A preclinical secondary pharmacology resource illuminates target-adverse drug reaction associations of marketed drugs” (Nat Commun, 2023)

Assays:
[1] = biological target: T1, Alpha-2C adrenergic receptor (Homo sapiens, UniProt P18825); format: functional
T1 sequence (P18825 whole entry): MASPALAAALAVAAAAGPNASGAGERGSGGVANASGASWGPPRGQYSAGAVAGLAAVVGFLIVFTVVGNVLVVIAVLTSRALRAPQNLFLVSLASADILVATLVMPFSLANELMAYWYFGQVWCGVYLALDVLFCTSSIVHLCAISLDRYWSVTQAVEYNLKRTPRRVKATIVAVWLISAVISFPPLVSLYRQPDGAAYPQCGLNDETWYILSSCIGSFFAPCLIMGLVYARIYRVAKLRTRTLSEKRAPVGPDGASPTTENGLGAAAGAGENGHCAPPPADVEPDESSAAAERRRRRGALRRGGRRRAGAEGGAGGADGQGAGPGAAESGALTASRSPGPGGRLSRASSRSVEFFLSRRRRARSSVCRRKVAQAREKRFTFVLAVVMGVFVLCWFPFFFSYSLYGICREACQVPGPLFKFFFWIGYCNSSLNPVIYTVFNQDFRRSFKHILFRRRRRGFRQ

[2] = biological target: T2, Type-1 angiotensin II receptor (Homo sapiens, UniProt P30556)
T2 sequence (P30556 whole entry): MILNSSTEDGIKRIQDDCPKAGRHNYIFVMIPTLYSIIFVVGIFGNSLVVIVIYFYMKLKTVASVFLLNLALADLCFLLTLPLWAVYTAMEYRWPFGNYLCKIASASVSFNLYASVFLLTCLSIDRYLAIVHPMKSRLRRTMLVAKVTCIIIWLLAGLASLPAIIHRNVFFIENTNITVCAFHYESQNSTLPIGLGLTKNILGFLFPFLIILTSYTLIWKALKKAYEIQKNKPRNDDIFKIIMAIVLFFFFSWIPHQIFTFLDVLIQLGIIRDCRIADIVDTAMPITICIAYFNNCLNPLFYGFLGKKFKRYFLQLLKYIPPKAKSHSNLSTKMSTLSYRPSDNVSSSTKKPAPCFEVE

B2 bradykinin receptor = biological target: T3, B2 bradykinin receptor (Homo sapiens, UniProt P30411)
T3 sequence (P30411 whole entry): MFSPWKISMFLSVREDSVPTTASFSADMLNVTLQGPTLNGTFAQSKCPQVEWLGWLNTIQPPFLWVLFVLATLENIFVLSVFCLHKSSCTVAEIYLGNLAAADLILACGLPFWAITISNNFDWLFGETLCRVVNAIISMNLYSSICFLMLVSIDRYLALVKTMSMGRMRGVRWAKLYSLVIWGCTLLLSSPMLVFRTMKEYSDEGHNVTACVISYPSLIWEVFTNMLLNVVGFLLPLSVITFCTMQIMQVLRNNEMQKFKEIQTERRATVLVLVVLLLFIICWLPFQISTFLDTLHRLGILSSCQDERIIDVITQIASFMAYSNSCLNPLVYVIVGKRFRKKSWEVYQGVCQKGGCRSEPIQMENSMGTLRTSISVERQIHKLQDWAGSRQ

[3] = biological target: T4, Muscarinic acetylcholine receptor M1 (Homo sapiens, UniProt P11229); format: functional
T4 sequence (P11229 whole entry): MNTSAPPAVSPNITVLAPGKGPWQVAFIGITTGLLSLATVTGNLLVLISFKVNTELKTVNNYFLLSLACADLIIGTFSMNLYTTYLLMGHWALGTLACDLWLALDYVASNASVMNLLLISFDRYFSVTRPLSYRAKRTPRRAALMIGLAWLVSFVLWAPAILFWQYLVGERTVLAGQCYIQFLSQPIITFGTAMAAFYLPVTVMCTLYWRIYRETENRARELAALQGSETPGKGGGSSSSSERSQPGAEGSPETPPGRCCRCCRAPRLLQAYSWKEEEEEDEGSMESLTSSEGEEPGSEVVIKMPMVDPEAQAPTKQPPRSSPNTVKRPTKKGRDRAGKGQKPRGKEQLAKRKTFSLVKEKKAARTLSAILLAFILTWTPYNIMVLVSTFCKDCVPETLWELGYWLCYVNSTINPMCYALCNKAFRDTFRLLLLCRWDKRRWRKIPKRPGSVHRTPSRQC

[4] = biological target: T5, Muscarinic acetylcholine receptor M2 (Homo sapiens, UniProt P08172); format: functional, cell-based
T5 sequence (P08172 whole entry): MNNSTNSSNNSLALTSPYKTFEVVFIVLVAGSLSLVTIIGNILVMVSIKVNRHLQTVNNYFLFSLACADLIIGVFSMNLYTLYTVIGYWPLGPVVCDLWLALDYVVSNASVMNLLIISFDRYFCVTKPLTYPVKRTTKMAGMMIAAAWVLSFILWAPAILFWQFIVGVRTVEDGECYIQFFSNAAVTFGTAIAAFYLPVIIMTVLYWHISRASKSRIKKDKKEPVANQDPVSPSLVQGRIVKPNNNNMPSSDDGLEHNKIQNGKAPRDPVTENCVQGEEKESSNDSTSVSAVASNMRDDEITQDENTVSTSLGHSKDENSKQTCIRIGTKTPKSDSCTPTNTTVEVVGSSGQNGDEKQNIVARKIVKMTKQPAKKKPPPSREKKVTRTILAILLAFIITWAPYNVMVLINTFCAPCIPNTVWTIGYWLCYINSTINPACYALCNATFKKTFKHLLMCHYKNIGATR

[5] = biological target: T6, 5-hydroxytryptamine receptor 1A (Homo sapiens, UniProt P08908); format: functional, cell-based
T6 sequence (P08908 whole entry): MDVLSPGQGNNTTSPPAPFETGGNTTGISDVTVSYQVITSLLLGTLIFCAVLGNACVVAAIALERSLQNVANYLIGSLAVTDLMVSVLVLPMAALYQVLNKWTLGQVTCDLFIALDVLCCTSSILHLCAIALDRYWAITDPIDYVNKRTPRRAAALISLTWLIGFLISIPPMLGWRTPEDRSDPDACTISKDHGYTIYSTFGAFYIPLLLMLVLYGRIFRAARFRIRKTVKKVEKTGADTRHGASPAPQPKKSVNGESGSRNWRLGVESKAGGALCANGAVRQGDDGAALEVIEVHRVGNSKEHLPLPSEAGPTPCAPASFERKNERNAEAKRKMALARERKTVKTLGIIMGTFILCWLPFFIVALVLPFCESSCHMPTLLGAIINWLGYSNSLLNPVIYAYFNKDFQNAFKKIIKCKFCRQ

Mu-type opioid receptor = Mu-type opioid receptor (Homo sapiens, UniProt P35372)
Note: assay procedure not described here.

Mu-type opioid receptor, sequence (P35372 whole entry): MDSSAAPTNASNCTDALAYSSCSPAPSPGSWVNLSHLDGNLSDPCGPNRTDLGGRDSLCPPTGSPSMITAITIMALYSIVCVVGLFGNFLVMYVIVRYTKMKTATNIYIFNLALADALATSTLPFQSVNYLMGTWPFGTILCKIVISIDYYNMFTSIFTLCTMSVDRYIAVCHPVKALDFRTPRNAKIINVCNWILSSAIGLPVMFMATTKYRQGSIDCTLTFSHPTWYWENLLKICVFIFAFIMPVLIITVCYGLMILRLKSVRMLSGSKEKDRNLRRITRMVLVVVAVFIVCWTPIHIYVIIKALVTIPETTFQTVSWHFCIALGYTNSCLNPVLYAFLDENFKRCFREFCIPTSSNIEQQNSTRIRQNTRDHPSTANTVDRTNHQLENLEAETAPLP

Compound `O=C1CN=C(c2ccccc2)c2cc(Cl)ccc2N1` [NORDAZEPAM] has an AC50 [1] of over 10 µM, an AC50 [2] of over 30 µM and an AC50 (B2 bradykinin receptor) of over 30 µM. It also gave an AC50 [3] of over 10 µM, an AC50 [4] of over 10 µM and an AC50 [5] of over 10 µM. It also gave an AC50 (Mu-type opioid receptor) of over 10 µM.

For `CC(CCc1ccccc1)NC(C)C(O)c1ccc(O)cc1` (stereo not drawn) [NYLIDRIN], the AC50 [1] was 0.64 µM, the AC50 [2] was over 30 µM and the AC50 (B2 bradykinin receptor) was over 30 µM. The AC50 [3] was over 10 µM, the AC50 [4] was over 10 µM and the AC50 [5] was 12 µM. The AC50 (Mu-type opioid receptor) was 9.9 µM.

With `O=C1Nc2ccc(Cl)cc2C(c2ccccc2)=NC1O` (stereo not drawn) [OXAZEPAM] the AC50 [1] was over 10 µM, the AC50 [2] was over 30 µM and the AC50 (B2 bradykinin receptor) was over 30 µM. It also gave an AC50 [3] of over 10 µM, an AC50 [4] of over 10 µM and an AC50 [5] of over 10 µM. It also gave an AC50 (Mu-type opioid receptor) of over 10 µM.

`CC(=O)O[C@H]1C[C@@H]2CC[C@@H]3[C@H](CC[C@@]4(C)[C@H]3C[C@H]([N+]3(C)CCCCC3)[C@@H]4OC(C)=O)[C@@]2(C)C[C@@H]1[N+]1(C)CCCCC1` [PANCURONIUM] was tested, and the AC50 [1] was over 10 µM, the AC50 [2] was over 10 µM and the AC50 (B2 bradykinin receptor) was over 10 µM. The AC50 [3] was over 10 µM, the AC50 [4] was over 10 µM and the AC50 [5] was over 10 µM. It also gave an AC50 (Mu-type opioid receptor) of over 30 µM.

Compound `CC1(C)C(C=C(Cl)Cl)C1C(=O)OCc1cccc(Oc2ccccc2)c1` (stereo not drawn) [PERMETHRIN] has an AC50 [1] of over 10 µM, an AC50 [2] of over 10 µM and an AC50 (B2 bradykinin receptor) of over 10 µM. The AC50 [3] was over 10 µM, the AC50 [4] was over 10 µM and the AC50 [5] was over 10 µM. The AC50 (Mu-type opioid receptor) was over 30 µM.

`Cc1ccc(=O)n(-c2ccccc2)c1` [PIRFENIDONE] gave an AC50 [1] of over 30 µM, an AC50 [2] of over 30 µM and an AC50 (B2 bradykinin receptor) of over 30 µM. For the same compound, the AC50 [3] was over 30 µM, the AC50 [4] was over 30 µM and the AC50 [5] was over 30 µM. For the same compound, the AC50 (Mu-type opioid receptor) was over 30 µM.

For `CCCOC(C(=O)OC1CCN(C)CC1)(c1ccccc1)c1ccccc1` [PROPIVERINE], the AC50 [1] was over 30 µM, the AC50 [2] was over 30 µM and the AC50 (B2 bradykinin receptor) was over 30 µM. For the same compound, the AC50 [3] was 1.7 µM, the AC50 [4] was 3.6 µM and the AC50 (Mu-type opioid receptor) was 0.75 µM.

Work on `CC(C)CC(N(C)C)C1(c2ccc(Cl)cc2)CCC1` (stereo not drawn) [SIBUTRAMINE] yielded an AC50 [1] of 3.8 µM, an AC50 [2] of over 30 µM and an AC50 (B2 bradykinin receptor) of over 30 µM. For the same compound, the AC50 [4] was 19 µM, the AC50 [5] was over 10 µM and the AC50 (Mu-type opioid receptor) was over 30 µM.

In the case of `[H]/N=C(/N)N[C@H]1[C@H](O)[C@@H](O)[C@H](O[C@@H]2O[C@@H](C)[C@](O)(C=O)[C@H]2O[C@@H]2O[C@@H](CO)[C@H](O)[C@@H](O)[C@@H]2NC)[C@@H](N/C(N)=N\[H])[C@@H]1O` [STREPTOMYCIN], the AC50 [1] is reported as over 30 µM, the AC50 [2] is reported as over 30 µM and the AC50 (B2 bradykinin receptor) is reported as over 30 µM. The AC50 [4] was over 30 µM, the AC50 [5] was over 10 µM and the AC50 (Mu-type opioid receptor) was over 10 µM.

Compound `Cc1cccc(N(C)C(=S)Oc2ccc3ccccc3c2)c1` [TOLNAFTATE] has an AC50 [1] of over 30 µM, an AC50 [2] of over 10 µM and an AC50 (B2 bradykinin receptor) of over 10 µM. For the same compound, the AC50 [4] was over 10 µM, the AC50 [5] was over 10 µM and the AC50 (Mu-type opioid receptor) was over 30 µM.

`C=CC(N)CCC(=O)O` (stereo not drawn) [VIGABATRIN] showed an AC50 [1] of over 10 µM, an AC50 [2] of over 10 µM and an AC50 (B2 bradykinin receptor) of over 10 µM. The AC50 [3] was over 10 µM, the AC50 [4] was over 10 µM and the AC50 (Mu-type opioid receptor) was over 30 µM.

Work on `N#C[C@@H]1CCCN1C(=O)CNC12CC3CC(CC(O)(C3)C1)C2` [VILDAGLIPTIN] yielded an AC50 [1] of over 30 µM, an AC50 [2] of over 30 µM and an AC50 (B2 bradykinin receptor) of over 30 µM. The AC50 [3] was over 30 µM, the AC50 [4] was over 30 µM and the AC50 (Mu-type opioid receptor) was over 10 µM.
